Measurements as given in patent publication US10870647B2, “Imidazopyridine derivative, method for preparing same, and pharmaceutical composition containing same as active ingredient for preventing or treating cancer” (DAEGU-GYEONGBUK MEDICAL INNOVATION FOUNDATION, priority 2016, dated 2020).

How the values were obtained:
Test in all cases: Kinase selectivity, scanMAX Kinase assay panel (DiscoverX), % control at 1 uM
Assay type in all cases: binding
[1] = target: T1, scanMAX Kinase assay panel (Homo sapiens, UniProt Q16539); conditions: p38-alpha; 1 uM; read-out: Percent Control (%)
T1 construct: purchased DiscoverX
T1 sequence (Q16539 whole entry): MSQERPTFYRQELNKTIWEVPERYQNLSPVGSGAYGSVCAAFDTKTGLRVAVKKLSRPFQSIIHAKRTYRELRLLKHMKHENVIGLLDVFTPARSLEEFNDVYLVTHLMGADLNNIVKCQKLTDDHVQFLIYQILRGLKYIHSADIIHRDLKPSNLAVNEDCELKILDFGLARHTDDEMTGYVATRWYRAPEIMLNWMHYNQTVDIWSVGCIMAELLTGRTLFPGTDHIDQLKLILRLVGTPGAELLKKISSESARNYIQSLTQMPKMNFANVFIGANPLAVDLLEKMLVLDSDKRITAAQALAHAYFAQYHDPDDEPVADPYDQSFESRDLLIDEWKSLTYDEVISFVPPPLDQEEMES
Method: (§1) The following experiment was performed to evaluate the inhibitory activity of the compound of the present invention on more enzymes.
(§2) Particularly, among the compounds of the present invention, the compounds of Example 1, Example 12 and Example 78 were selected and assigned to DiscoverX to measure the kinase selectivity. The experiment was performed by using scanMAX™ Kinase assay panel.
(§3) At this time, the concentration of the drug to be treated to the enzyme was adjusted to 1 uM in DMSO, and the control percentage (% control) was determined according to the following Equation 1. [Example Compound−Positive Control/Negative Control−Positive Control]×100 [Equation 1]
(§4) The enzyme selectivity of the compound of the present invention was judged to be active for the enzyme if the % control was <35 (i.e. less than 35%) for each enzyme.

[2] = target: T2, scanMAX Kinase assay panel (Homo sapiens, UniProt Q92918); conditions: HPK1; 1 uM; read-out: Percent Control (%)
T2 construct: purchased DiscoverX
T2 sequence (Q92918 whole entry): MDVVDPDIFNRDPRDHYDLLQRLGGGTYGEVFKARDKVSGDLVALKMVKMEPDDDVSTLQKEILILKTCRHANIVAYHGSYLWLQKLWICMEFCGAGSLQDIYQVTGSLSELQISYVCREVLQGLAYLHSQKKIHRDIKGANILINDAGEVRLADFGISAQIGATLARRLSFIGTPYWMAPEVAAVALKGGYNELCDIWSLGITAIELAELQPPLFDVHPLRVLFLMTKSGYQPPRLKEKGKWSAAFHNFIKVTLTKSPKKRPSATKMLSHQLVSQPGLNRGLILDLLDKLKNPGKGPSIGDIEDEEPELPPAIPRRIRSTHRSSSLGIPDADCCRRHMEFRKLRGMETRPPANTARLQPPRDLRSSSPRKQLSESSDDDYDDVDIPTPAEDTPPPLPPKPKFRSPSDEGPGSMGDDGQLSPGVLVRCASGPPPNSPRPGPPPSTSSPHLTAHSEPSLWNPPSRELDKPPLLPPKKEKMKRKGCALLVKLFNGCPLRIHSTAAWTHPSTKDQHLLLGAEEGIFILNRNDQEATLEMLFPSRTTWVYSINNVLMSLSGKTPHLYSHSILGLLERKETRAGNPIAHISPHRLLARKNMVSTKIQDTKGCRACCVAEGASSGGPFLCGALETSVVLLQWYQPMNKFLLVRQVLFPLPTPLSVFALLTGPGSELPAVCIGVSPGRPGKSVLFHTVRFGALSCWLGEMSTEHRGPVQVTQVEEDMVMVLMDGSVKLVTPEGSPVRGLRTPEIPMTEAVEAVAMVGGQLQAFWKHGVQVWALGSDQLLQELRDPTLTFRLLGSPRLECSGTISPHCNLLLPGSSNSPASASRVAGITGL
Method: as §1, §2, §3, §4

[3] = target: T3, scanMAX Kinase assay panel (Homo sapiens, UniProt Q9UF33); conditions: EPHA6; 1 uM; read-out: Percent Control (%)
T3 construct: purchased DiscoverX
T3 sequence (Q9UF33 23-1036): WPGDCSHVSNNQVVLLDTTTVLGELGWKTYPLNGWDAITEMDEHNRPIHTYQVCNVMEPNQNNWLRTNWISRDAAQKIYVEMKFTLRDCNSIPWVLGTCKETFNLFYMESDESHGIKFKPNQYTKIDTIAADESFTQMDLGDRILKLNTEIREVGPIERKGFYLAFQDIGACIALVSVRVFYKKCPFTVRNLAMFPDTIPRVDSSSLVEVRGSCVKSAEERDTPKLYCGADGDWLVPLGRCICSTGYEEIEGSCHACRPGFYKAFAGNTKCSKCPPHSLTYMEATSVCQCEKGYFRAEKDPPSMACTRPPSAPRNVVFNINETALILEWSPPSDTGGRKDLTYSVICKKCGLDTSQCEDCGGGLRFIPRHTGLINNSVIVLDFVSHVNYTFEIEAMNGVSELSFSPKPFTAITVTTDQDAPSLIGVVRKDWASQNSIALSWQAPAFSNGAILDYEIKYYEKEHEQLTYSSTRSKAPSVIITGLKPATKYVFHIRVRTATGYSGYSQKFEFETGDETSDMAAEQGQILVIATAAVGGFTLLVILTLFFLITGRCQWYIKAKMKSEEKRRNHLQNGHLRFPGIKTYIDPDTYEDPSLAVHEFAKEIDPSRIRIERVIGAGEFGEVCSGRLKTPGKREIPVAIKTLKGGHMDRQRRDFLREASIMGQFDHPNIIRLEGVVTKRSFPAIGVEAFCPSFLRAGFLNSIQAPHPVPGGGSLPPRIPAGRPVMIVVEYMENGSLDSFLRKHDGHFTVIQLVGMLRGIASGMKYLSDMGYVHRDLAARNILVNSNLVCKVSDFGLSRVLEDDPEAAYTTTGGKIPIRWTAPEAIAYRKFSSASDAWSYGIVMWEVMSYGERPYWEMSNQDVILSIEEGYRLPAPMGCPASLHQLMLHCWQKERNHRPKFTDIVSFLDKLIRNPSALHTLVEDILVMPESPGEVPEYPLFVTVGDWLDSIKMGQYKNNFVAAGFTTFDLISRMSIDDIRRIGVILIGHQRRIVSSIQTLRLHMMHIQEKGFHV
Method: as §1, §2, §3, §4

[4] = target: T4, scanMAX Kinase assay panel (Homo sapiens, UniProt O15530); conditions: PDPK1; 1 uM; read-out: Percent Control (%)
T4 construct: purchased DiscoverX
T4 sequence (O15530 1-556): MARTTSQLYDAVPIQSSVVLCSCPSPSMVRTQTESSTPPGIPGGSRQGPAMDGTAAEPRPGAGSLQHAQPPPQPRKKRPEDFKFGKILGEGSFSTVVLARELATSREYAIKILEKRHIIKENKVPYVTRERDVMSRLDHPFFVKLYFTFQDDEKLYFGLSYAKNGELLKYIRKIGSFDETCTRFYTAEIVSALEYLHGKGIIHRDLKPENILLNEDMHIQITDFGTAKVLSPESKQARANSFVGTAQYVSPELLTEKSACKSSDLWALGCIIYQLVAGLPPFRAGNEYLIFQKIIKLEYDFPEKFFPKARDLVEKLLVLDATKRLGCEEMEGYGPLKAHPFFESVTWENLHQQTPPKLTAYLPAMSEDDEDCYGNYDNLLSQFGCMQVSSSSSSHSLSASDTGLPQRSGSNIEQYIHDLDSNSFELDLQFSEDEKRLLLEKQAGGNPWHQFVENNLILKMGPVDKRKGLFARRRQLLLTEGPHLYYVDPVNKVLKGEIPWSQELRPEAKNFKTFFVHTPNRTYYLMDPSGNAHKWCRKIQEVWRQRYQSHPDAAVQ
Method: as §1, §2, §3, §4

Row | SMILES | remaining binding at 1 µM [1] [%] | remaining binding at 1 µM [2] [%] | remaining binding at 1 µM [3] [%] | remaining binding at 1 µM [4] [%]
1 | Cc1ccc(C(=O)Nc2ccc(CN3CCN(C)CC3)c(C(F)(F)F)c2)cc1C#Cc1cnc2c(Nc3cnn(C)c3)cccn12 [Example 1, 4-methyl-3-((8-((1-methyl-1H-pyrazol-4-yl)amino)imidazo[1,2-a]pyridin-3-yl)ethynyl)-N-(4-((4-methylpiperazin-1-yl)methyl)-3-(trifluoromethyl)phenyl)benzamide] | 0 | 1 | 2 | 50
2 | Cc1cn(-c2cc(NC(=O)c3ccc(C)c(C#Cc4cnc5c(Nc6cnn(C)c6)cccn45)c3)cc(C(F)(F)F)c2)cn1 [Example 12, 4-methyl-N-(3-(4-methyl-1H-imidazol-1-yl)-5-(trifluoromethyl)phenyl)-3-((8-((1-methyl-1H-pyrazol-4-yl)amino)imidazo[1,2-a]pyridin-3-yl)ethynyl)benzamide] | 7 | 5 | 19 | 93
3 | Cc1ccc(NC(=O)C2(C(=O)Nc3ccc(F)cc3)CC2)cc1C#Cc1cnc2c(Nc3cnn(C(C)C)c3)cccn12 [Example 78] | 14 | 78 | 90 | 92
